Experimental data taken from patent US20250320227A1, “MACROCYCLIC OREXIN RECEPTOR AGONISTS AND USES THEREOF” (Jazz Pharmaceuticals Ireland Limited, priority 2022, published 2025).

Molecular target: T1, human recombinant OX2 (hOX2) receptors expressed in CHO cells (Homo sapiens, UniProt O43614)
T1 construct: host or cells: CHO cells (hOX2-CHO)
T1 sequence (O43614 1-444): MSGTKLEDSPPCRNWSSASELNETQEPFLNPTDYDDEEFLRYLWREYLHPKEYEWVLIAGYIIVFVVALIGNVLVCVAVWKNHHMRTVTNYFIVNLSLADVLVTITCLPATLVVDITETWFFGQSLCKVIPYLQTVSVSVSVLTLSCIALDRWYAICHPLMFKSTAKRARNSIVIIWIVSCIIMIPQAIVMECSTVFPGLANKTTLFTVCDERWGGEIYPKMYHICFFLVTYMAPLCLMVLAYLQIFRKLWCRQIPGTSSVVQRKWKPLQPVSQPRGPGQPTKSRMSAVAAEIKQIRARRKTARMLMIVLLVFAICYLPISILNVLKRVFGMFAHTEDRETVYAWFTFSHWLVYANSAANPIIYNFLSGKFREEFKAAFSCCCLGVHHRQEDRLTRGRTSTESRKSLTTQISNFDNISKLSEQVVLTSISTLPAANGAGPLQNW
Assay: IP-1 accumulation assay (IP-One HTRF) in hOX2-CHO cells
Type: cell-based
Settings: 60 min incubation at 37° C., mean of at least two independent experiments, read-out: EC50_OX2R Category
Experimental: The accumulation of Inositol-1 Monophosphate (IP-1) was measured using IP-One HTRF® Terbium cryptate based assay (Cisbio) in human recombinant OX1 (hOX1) and at OX2 (hOX2) receptors expressed in CHO cells (DiscoverX) according to the manufacturer's instructions for cells tested in suspension.
hOX1-CHO and hOX2-CHO cells were seeded into white 384-well plates at a density of 20,000 cells/well in Hank's Balanced Salt Solution (HBSS) containing 20 mM HEPES pH 7.4, 50 mM, LiCl and 0.1% and Bovine Serum Albumin (BSA).
Compounds of disclosure were tested in an 11 points concentration response curve (CRC) serially diluted in neat DMSO at 200 fold concentrations and added by Echo acoustic liquid handling (Labcyte) to the cells (0.5% DMSO final in the assay). After 60 min of incubation at 37° C. detection reagents, IP1-d2 tracer and anti-IP1-cryptate were diluted in lysis buffer according to the manufacturer's descriptions and added to the cells.
Following 60 min incubation at room temperature, time-resolved fluorescence (HTRF) was measured at 615 nm and 665 nm by Envision Multilabel reader (Perkin Elmer) and the HTRF ratio (A665/A615×10^4) was calculated.
The IP-1 accumulation response was expressed as percentage of the maximal OX-A response.
Curve fitting and EC50 estimations were carried out using a four-parameter logistic model using XLfit Software. Mean data of EC50 are calculated from at least two independent experiments performed in duplicates

SMILES	EC50 [nM]
C[C@@H]1C[C@]2(COCC(=O)N2)[C@H]2CO[C@H]3CC[C@H](CC3)c3c(F)cccc3OCC(=O)N12 (single isomer, unassigned) [Example 17b]	1000 to 10000
C[C@@H]1C[C@@]2(COCC(=O)N2)[C@@H]2CO[C@H]3CC[C@H](CC3)c3cc(F)ccc3OCC(=O)N12 (single isomer, unassigned) [Example 18a]	< 100
C[C@@H]1C[C@]2(COCC(=O)N2)[C@H]2CO[C@H]3CC[C@H](CC3)c3cc(F)ccc3OCC(=O)N12 (single isomer, unassigned) [Example 18b]	> 10000
C[C@@H]1C[C@@]2(COCC(=O)N2)[C@@H]2CO[C@H]3CC[C@H](CC3)c3cccc(Cl)c3OCC(=O)N12 (single isomer, unassigned) [Example 20a]	1000 to 10000
C[C@@H]1C[C@]2(COCC(=O)N2)[C@H]2CO[C@H]3CC[C@H](CC3)c3cc(Cl)ccc3OCC(=O)N12 (single isomer, unassigned) [Example 21b]	> 10000
Cc1ccc2c(c1)[C@H]1CC[C@H](CC1)OC[C@H]1N(C(=O)CO2)[C@H](C)C[C@]12COCC(=O)N2 (single isomer, unassigned) [Example 22b]	> 10000
C[C@@H]1C[C@@]2(COCC(=O)N2)[C@@H]2CO[C@H]3CC[C@H](CC3)c3cccnc3OCC(=O)N12 (single isomer, unassigned) [Example 23a]	100 to 1000
C[C@@H]1C[C@]2(COCC(=O)N2)[C@H]2CO[C@H]3CC[C@H](CC3)c3cccc(F)c3OCCC(=O)N12 (single isomer, unassigned) [Example 24b]	100 to 1000
O=C1COC[C@@]2(CCCN3C(=O)COc4ccccc4[C@H]4CC[C@H](CC4)OC[C@H]32)N1 (single isomer, unassigned) [Example 32a]	< 100
O=C1COC[C@]2(CCCN3C(=O)COc4ccccc4[C@H]4CC[C@H](CC4)OC[C@@H]32)N1 (single isomer, unassigned) [Example 32b]	> 10000
O=C1COC[C@]2(CCCN3C(=O)CCOc4ccccc4[C@H]4CC[C@H](CC4)OC[C@@H]32)N1 (single isomer, unassigned) [Example 33b]	100 to 1000
CC1Oc2ccccc2[C@H]2CC[C@H](CC2)OC[C@@H]2N(CCC[C@@]23COCC(=O)N3)C1=O (single isomer, unassigned) [Example 35a]	< 100
CC1Oc2ccccc2[C@H]2CC[C@H](CC2)OC[C@H]2N(CCC[C@]23COCC(=O)N3)C1=O (single isomer, unassigned) [Example 35b]	> 10000

Further lines, results first:

EC50 [nM]	SMILES
< 100	C[C@@H]1C[C@@]2(COCC(=O)N2)[C@@H]2CO[C@H]3CC[C@H](CC3)c3ccc(F)cc3OCC(=O)N12 (single isomer, unassigned) [Example 19a]
> 10000	C[C@@H]1C[C@]2(COCC(=O)N2)[C@H]2CO[C@H]3CC[C@H](CC3)c3cccc(Cl)c3OCC(=O)N12 (single isomer, unassigned) [Example 20b]
100 to 1000	C[C@@H]1C[C@@]2(COCC(=O)N2)[C@@H]2CO[C@H]3CC[C@H](CC3)c3cc(Cl)ccc3OCC(=O)N12 (single isomer, unassigned) [Example 21a]
< 100	Cc1ccc2c(c1)[C@H]1CC[C@H](CC1)OC[C@@H]1N(C(=O)CO2)[C@H](C)C[C@@]12COCC(=O)N2 (single isomer, unassigned) [Example 22a]
1000 to 10000	C[C@@H]1C[C@]2(COCC(=O)N2)[C@H]2CO[C@H]3CC[C@H](CC3)c3cccnc3OCC(=O)N12 (single isomer, unassigned) [Example 23b]
< 100	O=C1COC[C@@]2(CCCN3C(=O)CCOc4ccccc4[C@H]4CC[C@H](CC4)OC[C@H]32)N1 (single isomer, unassigned) [Example 33a]
